What all share (experiment): growth of human tumour cells (NCI), 48 h
In experiment [1] the test system is M14.
Experiment [2] deals with RXF 393.
The subject of experiment [3] is SK-MEL-28.
Experiment [4] has as its system MDA-N.
Experiment [5] deals with DU-145.
For experiment [6], the system named is SW-620.
Experiment [7] concerns Malme-3M.
In experiment [8] the test system is HT-29.
The test system of experiment [9] is TK-10.
The subject of experiment [10] is HOP-92.
In experiment [11] the test system is SK-OV-3.
Experiment [12] deals with NCI-H460.
The subject of experiment [13] is OVCAR-4.
The test system of experiment [14] is OVCAR-3.
Experiment [15] relates to MDA-MB-435.
For experiment [16], the system named is SK-MEL-2.
Experiment [17] deals with SF-539.
Experiment [18] deals with Hs-578T.
Experiment [19] concerns SN12C.
Experiment [20] concerns NCI-H522.

From ChEMBL document CHEMBL1201862, “PubChem BioAssay data set” (2004) come the findings set out here.

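The compound was tested at five concentrations on cells cultured in 96-well plates, with a 48-hour exposure period. Here, GI50 denotes the concentration required for 50% inhibition of growth.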 Activity calls are given as the source filed them. Rule as the data show it: active = GI50 up to about 1.1 µM and inactive = higher. Bounds are passed on as bounds.

For the molecule `O=C1NC2c3c(I)sc(I)c3C(O)C2O1` (stereo unspecified), the GI50 in experiment [1], in experiment [2], in [3], in experiment [4], in [5] and in experiment [6] was > 100 µM (inactive) throughout. In addition, the GI50 in experiment [7], in experiment [8], in experiment [9], in [10], in [11] and in experiment [12] was > 100 µM (inactive) each time. Moreover, the GI50 in experiment [13], in experiment [14], in experiment [15], in experiment [16], in experiment [17] and in experiment [18] was > 100 µM (inactive) each time. Besides, the GI50 in [19] is > 100 µM (inactive).
For `C[C@]12CC[C@H]3[C@@H](CCC4=CC(=O)CC[C@@]43C)[C@]1(O)CC[C@]2(O)C(=O)CO`, the GI50 in [1], in experiment [2], in experiment [20], in experiment [3], in [4] and in [5] was > 100 µM (inactive) throughout. The GI50 in experiment [6], in experiment [7], in experiment [8], in [9], in experiment [11] and in experiment [12] was > 100 µM (inactive) in each case. Further, the GI50 in experiment [13], in experiment [14], in experiment [15], in experiment [16], in experiment [17] and in experiment [18] was > 100 µM (inactive) throughout. Besides, in experiment [19], the GI50 was > 100 µM (inactive).
On to `O=C1c2ccccc2CC12Cc1ccc3c(c1C2=O)CCCC3` (stereo unspecified), for which the GI50 in [1] was 8.61 µM (inactive); in [2], 4.13 µM (inactive); in experiment [20], 5.21 µM (inactive); in experiment [3], 47.2 µM (inactive); in [4] it was 6.35 µM (inactive); in experiment [5], > 100 µM (inactive). Also, the GI50 is 6.32 µM (inactive) in experiment [6]; 82.2 µM (inactive) in [7]; 6.49 µM (inactive) in experiment [8]; > 100 µM (inactive) in experiment [9]; > 100 µM (inactive) in experiment [11]; 3.91 µM (inactive) in [12]. Moreover, the GI50 is 3.29 µM (inactive) in [13]; 12.6 µM (inactive) in experiment [14]; 21.7 µM (inactive) in experiment [15]; > 100 µM (inactive) in experiment [16]; 4.89 µM (inactive) in experiment [17]; 0.491 µM (active) in experiment [18]. Moreover, in [19], the GI50 was 14.1 µM (inactive).
Regarding `CN(c1c(Cl)cccc1Cl)S(=O)(=O)c1ccccc1[N+](=O)[O-]`, the GI50 in experiment [1], in [2], in experiment [20], in experiment [3], in experiment [4] and in experiment [5] was > 100 µM (inactive) in each case. Further, the GI50 in [6], in experiment [7], in experiment [8], in experiment [9], in experiment [11] and in experiment [12] was > 100 µM (inactive) in each case. Also, the GI50 in experiment [13], in experiment [14], in experiment [15], in [16], in experiment [17] and in [18] was > 100 µM (inactive) in each case. The GI50 in [19] is > 100 µM (inactive).
Turning to `CN(C)c1ccc(C=C2N=C(c3ccccc3)N(c3cc(C(=O)c4ccccc4)ccc3N3C(=O)/C(=C/c4ccc(N(C)C)cc4)N=C3c3ccccc3)C2=O)cc1`, the GI50 in [1] is 4.95 µM (inactive); in [3], > 100 µM (inactive); in [4], 2.16 µM (inactive); in [5] it was 5.74 µM (inactive); in experiment [6] it was 5.32 µM (inactive); in experiment [8], 4.28 µM (inactive). The GI50 was 23.8 µM (inactive) in experiment [9]; > 100 µM (inactive) in [10]; 4.75 µM (inactive) in [11]; 3.94 µM (inactive) in [12]; 7.21 µM (inactive) in experiment [13]; 2.12 µM (inactive) in experiment [14]. Besides, the GI50 in experiment [15] was 1.9 µM (inactive); in experiment [16], 3.29 µM (inactive); in experiment [17] it was 2.34 µM (inactive); in [18] it was 4.2 µM (inactive); in experiment [19] it was 58.7 µM (inactive).
Take `Cc1ccc(CS(=O)(=O)C/N=C2\Sc3ccccc3N\C2=C/C(=O)c2ccc(Cl)cc2)cc1`: the GI50 in [1], in experiment [20], in experiment [3], in experiment [4], in experiment [5] and in experiment [6] was > 10 µM (inactive) in each case. In addition, the GI50 in [7] was > 10 µM (inactive); in [8], > 10 µM (inactive); in experiment [9], > 10 µM (inactive); in experiment [10], > 10 µM (inactive); in experiment [11], > 10 µM (inactive); in [13], 5.47 µM (inactive). Besides, the GI50 is > 10 µM (inactive) in experiment [14]; > 10 µM (inactive) in experiment [15]; > 10 µM (inactive) in experiment [17]; 9.55 µM (inactive) in experiment [18]; > 10 µM (inactive) in [19].
On to `Cc1n[n+](Cc2ccccc2)c2sc(N)nn12`, for which the GI50 in [1] was > 100 µM (inactive); in experiment [2], > 100 µM (inactive); in [20] it was 30 µM (inactive); in experiment [3] it was > 100 µM (inactive); in [4] it was > 100 µM (inactive); in [5], > 100 µM (inactive). Further, the GI50 in experiment [6] was 64.6 µM (inactive); in experiment [7], > 100 µM (inactive); in [8] it was 59 µM (inactive); in experiment [9], > 100 µM (inactive); in experiment [11], 85.9 µM (inactive); in experiment [12], > 10 µM (inactive). Further, the GI50 in experiment [13], in experiment [14], in [15], in [16], in experiment [17] and in experiment [18] was > 100 µM (inactive) throughout. Moreover, the GI50 in [19] was > 100 µM (inactive).
Regarding `Cc1cn(C2CC(N=[N+]=[N-])C(CO[Si](C)(C)C(C)(C)C)O2)c(=O)[nH]c1=O` (stereo unspecified), the GI50 in experiment [1] was 21.4 µM (inactive); in [2] it was 15.5 µM (inactive); in [20], 16.8 µM (inactive); in experiment [4] it was 17 µM (inactive); in experiment [5], 21.6 µM (inactive); in [6], 16.9 µM (inactive). In addition, the GI50 in experiment [7] is 14.3 µM (inactive); in experiment [8], 16.8 µM (inactive); in experiment [9], 16.3 µM (inactive); in experiment [11], 18.4 µM (inactive); in experiment [13], 14.2 µM (inactive); in experiment [14] it was 16.9 µM (inactive). Further, the GI50 in experiment [15] was 18 µM (inactive); in experiment [16], 15.2 µM (inactive); in experiment [17] it was 18 µM (inactive); in experiment [18] it was 17.6 µM (inactive); in experiment [19], 15.6 µM (inactive).
As for `O=C(Cn1c2ccc(Br)cc2c2nc3ccccc3nc21)N1CCOCC1`, the GI50 in [1] was > 100 µM (inactive); in [2], 21.3 µM (inactive); in [3], > 100 µM (inactive); in experiment [4], > 100 µM (inactive); in experiment [5] it was > 100 µM (inactive); in experiment [6], > 100 µM (inactive). Also, the GI50 in [7] was > 100 µM (inactive); in [8], > 100 µM (inactive); in experiment [9] it was > 100 µM (inactive); in [10], 12.8 µM (inactive); in experiment [11], > 100 µM (inactive); in experiment [12], > 100 µM (inactive). For the same molecule, the GI50 in experiment [13] is > 100 µM (inactive); in [14], > 100 µM (inactive); in [15], > 100 µM (inactive); in [16], > 100 µM (inactive); in [18], 49.1 µM (inactive); in experiment [19], > 100 µM (inactive).
With `Cc1ccc2c(=O)c3cccc(CC(=O)O)c3[nH]c2c1C`, the GI50 in experiment [1], in [20], in experiment [3], in experiment [4], in experiment [5] and in [6] was > 100 µM (inactive) each time. The GI50 in experiment [7], in experiment [8], in experiment [9], in experiment [10], in experiment [11] and in experiment [12] was > 100 µM (inactive) in each case. The GI50 in experiment [13] was > 100 µM (inactive); in [14], 57.8 µM (inactive); in experiment [15], 65.6 µM (inactive); in experiment [17], > 100 µM (inactive); in [18], 72.1 µM (inactive); in experiment [19] it was > 100 µM (inactive).
In the case of `CC1=NN(c2nc(N)nc(CSc3cc(Cl)c(C)cc3S(N)(=O)=O)n2)C(C)(C)C1`, the GI50 in experiment [1], in experiment [2], in experiment [20], in experiment [3], in [4] and in experiment [5] was > 10 µM (inactive) each time. Besides, the GI50 in experiment [6], in experiment [7], in experiment [8], in experiment [9], in experiment [11] and in experiment [12] was > 10 µM (inactive) each time. Moreover, the GI50 in experiment [13], in experiment [14], in experiment [15], in [16], in experiment [17] and in [18] was > 10 µM (inactive) each time. In addition, in experiment [19], the GI50 was > 10 µM (inactive).
